Values joined by “and” are separate entries in the source; they are usually repeats but may differ in a detail not shown here. Identical values can stand only once.
Tested on: MPNST complex spheroid with HUVEC/MSC, growth, % test/control
Assay: Anticancer human tumor MPNST cell line growth inhibition [Asc];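 further: compounds left on spheroids for seven days before reading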
Conditions: for viability, T/C: stronger effect = lower value; active means viability on the fitted dose curve at most 10% of control; inactive means the rest
Procedure, shortened: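 Spheroid model: tumor line + HUVEC + hMSC. Single agents and combinations; top conc. at/near clinical Cmax (10 microM if undetermined), half-log dilutions. DMSO stocks at 800-fold test concentration.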

[1] = curve of first compound, second compound 0.03 µM
[2] = curve of first compound, second compound 0.0949 µM
[3] = curve of first compound, second compound 0.3 µM
[4] = curve of first compound, second compound 0.949 µM
[5] = curve of first compound, second compound 3 µM
[6] = second compound 0.03 µM, first compound 0.00316 µM
[7] = second compound 0.03 µM, first compound 0.01 µM
[8] = second compound 0.03 µM, first compound 0.0316 µM
[9] = second compound 0.03 µM, first compound 0.1 µM
[10] = second compound 0.03 µM, first compound 0.316 µM
[11] = second compound 0.03 µM, first compound 1 µM
[12] = second compound 0.0949 µM, first compound 0.00316 µM
[13] = second compound 0.0949 µM, first compound 0.01 µM
[14] = second compound 0.0949 µM, first compound 0.0316 µM
[15] = second compound 0.0949 µM, first compound 0.1 µM
[16] = second compound 0.0949 µM, first compound 0.316 µM
[17] = second compound 0.0949 µM, first compound 1 µM
[18] = second compound 0.3 µM, first compound 0.00316 µM
[19] = second compound 0.3 µM, first compound 0.01 µM
[20] = second compound 0.3 µM, first compound 0.0316 µM
[21] = second compound 0.3 µM, first compound 0.1 µM
[22] = second compound 0.3 µM, first compound 0.316 µM
[23] = second compound 0.3 µM, first compound 1 µM
[24] = second compound 0.949 µM, first compound 0.00316 µM
[25] = second compound 0.949 µM, first compound 0.01 µM
[26] = second compound 0.949 µM, first compound 0.0316 µM
[27] = second compound 0.949 µM, first compound 0.1 µM
[28] = second compound 0.949 µM, first compound 0.316 µM
[29] = second compound 0.949 µM, first compound 1 µM
[30] = second compound 3 µM, first compound 0.00316 µM
[31] = second compound 3 µM, first compound 0.01 µM
[32] = second compound 3 µM, first compound 0.0316 µM
[33] = second compound 3 µM, first compound 0.1 µM
[34] = second compound 3 µM, first compound 0.316 µM
[35] = second compound 3 µM, first compound 1 µM

CNC(C)C(=O)NC1CN(S(=O)(=O)c2cccc(S(=O)(=O)N3CCC4CCC(C(=O)NC(c5ccccc5)c5ccccc5)N4C(=O)C(NC(=O)C(C)NC)C3)c2)CCC2CCC(C(=O)NC(c3ccccc3)c3ccccc3)N2C1=O (stereo unspecified) + CCN1C(C(=O)NC23CCC(C(=O)O)(CC2)CC3)C(c2cccc(Cl)c2F)C2(C(=O)Nc3cc(Cl)ccc32)C12CCCCC2
inactive: viability, T/C [6] 74.7% | viability, T/C [7] 78.1% | viability, T/C [8] 94.7% | viability, T/C [9] 114% | viability, T/C [10] 106% | viability, T/C [11] 93% | viability, T/C [12] 92.5% | viability, T/C [13] 93.9% | viability, T/C [14] 100% | viability, T/C [15] 100% | viability, T/C [16] 108% | viability, T/C [17] 89.3% | viability, T/C [18] 101% | viability, T/C [19] 99.7% | viability, T/C [20] 99.4% | viability, T/C [21] 99.8% | viability, T/C [22] 96.6% | viability, T/C [23] 122% | viability, T/C [24] 98.1% | viability, T/C [25] 93.2% | viability, T/C [26] 107% | viability, T/C [27] 104% | viability, T/C [28] 105% | viability, T/C [29] 106% | viability, T/C [30] 86.2% | viability, T/C [31] 86.9% | viability, T/C [32] 100% | viability, T/C [33] 104% | viability, T/C [34] 93.8% | viability, T/C [35] 118%
> 1 µM: IC50 [1] | IC50 [2] | IC50 [3] | IC50 [4] | IC50 [5]

COc1c(OCCCN2CCOCC2)ccc2c3n(c(=NC(=O)c4cnc(N)nc4)nc12)CCN3 + CCN1C(C(=O)NC23CCC(C(=O)O)(CC2)CC3)C(c2cccc(Cl)c2F)C2(C(=O)Nc3cc(Cl)ccc32)C12CCCCC2
0.0384 µM: IC50 [3]
0.0254 µM: IC50 [1]
inactive: viability, T/C [6] 66.2% | viability, T/C [7] 58.8% | viability, T/C [8] 47% | viability, T/C [9] 37.1% | viability, T/C [10] 25.9% | viability, T/C [11] 14.6% | viability, T/C [12] 75.6% | viability, T/C [13] 58.2% | viability, T/C [14] 51.5% | viability, T/C [15] 36.5% | viability, T/C [16] 30.3% | viability, T/C [17] 17.4% | viability, T/C [18] 77.3% | viability, T/C [19] 64.1% | viability, T/C [20] 55% | viability, T/C [21] 36.5% | viability, T/C [22] 24.4% | viability, T/C [23] 17.4% | viability, T/C [24] 81.3% | viability, T/C [25] 60.4% | viability, T/C [26] 52.2% | viability, T/C [27] 33.2% | viability, T/C [28] 21% | viability, T/C [29] 17.3% | viability, T/C [30] 74% | viability, T/C [31] 62% | viability, T/C [32] 43% | viability, T/C [33] 28% | viability, T/C [34] 19.1% | viability, T/C [35] 15.6%
0.0272 µM: IC50 [4]
0.0297 µM: IC50 [2]
0.0209 µM: IC50 [5]

C#Cc1c(F)ccc2cc(O)cc(-c3ncc4c(N5CC6CCC(C5)N6)nc(OCC56CCCN5CC(F)C6)nc4c3F)c12 (stereo unspecified)
> 10 µM: IC50 (curve of compound)
inactive: viability, T/C (compound 0.0316 µM) 76.6% and 93.8% and 88.8% | viability, T/C (compound 0.1 µM) 87% and 113% and 69.2% | viability, T/C (compound 0.316 µM) 74.9% and 107% and 83.5% | viability, T/C (compound 1 µM) 61.2% and 94.7% and 70.7% | viability, T/C (compound 3.16 µM) 88% and 93.3% and 87.2% | viability, T/C (compound 10 µM) 50% and 97.8% and 110%

NC1CCC(NC2CC2c2ccccc2)CC1 (stereo unspecified)
inactive: viability, T/C (compound 0.000316 µM) 78.8% and 74.6% and 64.2% | viability, T/C (compound 0.001 µM) 78.6% and 79.4% and 71.8% | viability, T/C (compound 0.00316 µM) 76.3% and 81% and 80.4% | viability, T/C (compound 0.01 µM) 74% and 88.9% and 68.4% | viability, T/C (compound 0.0316 µM) 83.4% and 76.8% and 64.2% | viability, T/C (compound 0.1 µM) 78.2% and 98.4% and 47.2%
> 0.1 µM and 0.0827 µM: IC50 (curve of compound)

CCN1C(C(=O)NC23CCC(C(=O)O)(CC2)CC3)C(c2cccc(Cl)c2F)C2(C(=O)Nc3cc(Cl)ccc32)C12CCCCC2 (stereo unspecified) + CNC(C)C(=O)NC1CN(S(=O)(=O)c2cccc(S(=O)(=O)N3CCC4CCC(C(=O)NC(c5ccccc5)c5ccccc5)N4C(=O)C(NC(=O)C(C)NC)C3)c2)CCC2CCC(C(=O)NC(c3ccccc3)c3ccccc3)N2C1=O
inactive: viability, T/C (second compound 0.00316 µM, first compound 0.00949 µM) 98.4% | viability, T/C (second compound 0.00316 µM, first compound 0.03 µM) 64.1% | viability, T/C (second compound 0.00316 µM, first compound 0.0949 µM) 79.5% | viability, T/C (second compound 0.00316 µM, first compound 0.3 µM) 85.6% | viability, T/C (second compound 0.00316 µM, first compound 0.949 µM) 74.1% | viability, T/C (second compound 0.00316 µM, first compound 3 µM) 76% | viability, T/C (second compound 0.01 µM, first compound 0.00949 µM) 100% | viability, T/C (second compound 0.01 µM, first compound 0.03 µM) 106% | viability, T/C (second compound 0.01 µM, first compound 0.0949 µM) 86.3% | viability, T/C (second compound 0.01 µM, first compound 0.3 µM) 64.1% | viability, T/C (second compound 0.01 µM, first compound 0.949 µM) 78.9% | viability, T/C (second compound 0.01 µM, first compound 3 µM) 63.4% | viability, T/C (second compound 0.0316 µM, first compound 0.00949 µM) 87.2% | viability, T/C (second compound 0.0316 µM, first compound 0.03 µM) 66.3% | viability, T/C (second compound 0.0316 µM, first compound 0.0949 µM) 69.3% | viability, T/C (second compound 0.0316 µM, first compound 0.3 µM) 70.5% | viability, T/C (second compound 0.0316 µM, first compound 0.949 µM) 68.8% | viability, T/C (second compound 0.0316 µM, first compound 3 µM) 68.1% | viability, T/C (second compound 0.1 µM, first compound 0.00949 µM) 92.9% | viability, T/C (second compound 0.1 µM, first compound 0.03 µM) 77.7% | viability, T/C (second compound 0.1 µM, first compound 0.0949 µM) 70.3% | viability, T/C (second compound 0.1 µM, first compound 0.3 µM) 80.6% | viability, T/C (second compound 0.1 µM, first compound 0.949 µM) 58.5% | viability, T/C (second compound 0.1 µM, first compound 3 µM) 64.6% | viability, T/C (second compound 0.316 µM, first compound 0.00949 µM) 68.8% | viability, T/C (second compound 0.316 µM, first compound 0.03 µM) 71.5% | viability, T/C (second compound 0.316 µM, first compound 0.0949 µM) 86% | viability, T/C (second compound 0.316 µM, first compound 0.3 µM) 68.2% | viability, T/C (second compound 0.316 µM, first compound 0.949 µM) 68.1% | viability, T/C (second compound 0.316 µM, first compound 3 µM) 62.1% | viability, T/C (second compound 1 µM, first compound 0.00949 µM) 97% | viability, T/C (second compound 1 µM, first compound 0.03 µM) 68.2% | viability, T/C (second compound 1 µM, first compound 0.0949 µM) 87.7% | viability, T/C (second compound 1 µM, first compound 0.3 µM) 65.3% | viability, T/C (second compound 1 µM, first compound 0.949 µM) 65.6% | viability, T/C (second compound 1 µM, first compound 3 µM) 70.2%
> 3 µM: IC50 (curve of first compound, second compound 0.00316 µM) | IC50 (curve of first compound, second compound 0.01 µM) | IC50 (curve of first compound, second compound 0.0316 µM) | IC50 (curve of first compound, second compound 0.1 µM) | IC50 (curve of first compound, second compound 0.316 µM) | IC50 (curve of first compound, second compound 1 µM)
